Measured values reported in ChEMBL document CHEMBL1151696 (Bioorg Med Chem, 2008).
pEC50, pIC50: −log10 of the molar value. The source made the active and inactive calls. The calls are words filed in the database; no cut-off is given here.

Experiments:
[1] = system: Vesicular stomatitis virus; type: functional, organism-based
[2] = system: Mammalian orthoreovirus 1; type: functional, organism-based
Human alphaherpesvirus 1 = type: functional, organism-based
[3] = system: Respiratory syncytial virus; type: functional, organism-based
[4] = biological target: T1, Glutamate NMDA receptor (Rattus norvegicus) (UniProt P35439+Q00959+Q00960+Q00961+Q62645+Q8VHN2+Q9R1M7); experiment: (§1) Antagonist activity at NMDA receptor in cerebellar granule neurons assessed as inhibition of NMDA-induced increase in intracellular calcium concentration by fluorometric assay; type: functional, cell-based
Punta Toro virus = type: functional, organism-based
[5] = biological target: T1, Glutamate NMDA receptor (Rattus norvegicus); experiment: (§2) Antagonist activity at NMDA receptor in cerebellar granule neurons assessed as inhibition of glutamate-induced increase in intracellular calcium concentration by fluorometric assay; type: functional, cell-based
Rattus norvegicus = species on record: Rattus norvegicus; experiment: Inhibition of [3H]dopamine uptake in Wistar rat striatum synaptosomes at 100 uM by scintillation spectrometry; type: functional, subcellular; design: scale not given: the % may be the effect or the level left
Coxsackievirus B4 = type: functional, organism-based
Feline coronavirus = type: functional, organism-based
Human respirovirus 3 = type: functional, organism-based
Human alphaherpesvirus 2 = type: functional, organism-based
Sindbis virus = type: functional, organism-based
Influenza A virus H3N2 = type: functional, organism-based, Influenza A virus (A/Hong Kong/7/1987(H3N2)); details: MDCK
Influenza B virus = type: functional, organism-based; details: B/Hong Kong/05/1972, MDCK
Glutamate NMDA receptor [6] = experiment: as §1; type: functional, cell-based
Influenza A virus = experiment: microbe, parasite or virus in culture; details: A/Puerto Rico/8/1934(H1N1), MDCK
Glutamate NMDA receptor [7] = experiment: as §2; type: functional, cell-based
[8] = Cytotoxicity against MDCK cells by MTS assay; type: cell-based, Canis lupus familiaris; details: dog
Trypanosoma brucei [9] = experiment: Trypanocidal activity against Trypanosoma brucei 427 blood stream after 48 hrs by hemocytometer; type: functional, organism-based; details: Trypanosoma brucei, 427, 48 h
Trypanosoma brucei [10] = experiment: Trypanocidal activity against Trypanosoma brucei 427 blood stream at 5 ug/ml after 48 hrs by hemocytometer; type: functional, organism-based

Row | Structure (SMILES) | Activity [1] | Activity [2] | Activity (Human alphaherpesvirus 1) | Activity [3] | Activity (Punta Toro virus) | Activity (Rattus norvegicus) | Activity (Coxsackievirus B4) | Activity (Feline coronavirus) | Activity (Human respirovirus 3) | Activity (Human alphaherpesvirus 2) | Activity (Sindbis virus) | pIC50 (Glutamate NMDA receptor [6]) | pIC50 (Glutamate NMDA receptor [7]) | also measured
1 | CC12CC3CC1(C)CC3(N(Cc1ccccc1)Cc1ccccc1)C2 | inactive | inactive | inactive | inactive | inactive | 74.3% | inactive | inactive | inactive | inactive | inactive | – | – | Activity [4]: inactive; Activity [5]: inactive
2 | NC12CC3CC(CC1C3)C2 | – | – | – | – | – | 84.9% | – | – | – | – | – | 4.04 | < 3.30 | pEC50 (Influenza A virus H3N2): 4.58; Activity (Influenza B virus): inactive; pEC50 (Influenza A virus): 3.71; MCC [8]: > 575 µM
3 | CC(N)C12CC3CC(CC(C3)C1)C2 (centres undefined) [RIMANTADINE] | – | – | – | – | – | – | – | – | – | – | – | – | – | pEC50 (Influenza A virus H3N2): 6.07; Activity (Influenza B virus): inactive; IC90 (Trypanosoma brucei [9]): 14 µM; MCC [8]: > 100 µM
4 | CN(C)C12CC3(C)CC1CC3(C)C2 | inactive | inactive | inactive | inactive | inactive | 75.2% | inactive | inactive | inactive | inactive | inactive | 3.82 | 3.73 | Activity (Trypanosoma brucei [10]): inactive
5 | CC12CC3CC1(C)CC3(CN)C2 | inactive | inactive | inactive | inactive | inactive | 39.1% | inactive | inactive | inactive | inactive | inactive | 3.89 | < 3.30 | Activity (Trypanosoma brucei [10]): inactive
6 | C1CCN(C23CC4CC(CC2C4)C3)CC1 | inactive | inactive | inactive | inactive | inactive | 68.5% | inactive | inactive | inactive | inactive | inactive | 4.35 | < 3.30 | –
7 | CN(Cc1ccccc1)CC12CC3CC(CC1C3)C2 | inactive | inactive | inactive | inactive | inactive | 45% | inactive | inactive | inactive | inactive | inactive | 3.75 | < 3.30 | –
8 | c1ccc(CNCC23CC4CC(CC2C4)C3)cc1 | inactive | inactive | inactive | inactive | inactive | 57.9% | inactive | inactive | inactive | inactive | inactive | 3.86 | < 3.30 | –
9 | CNC12CC3CC(CC1C3)C2 | inactive | inactive | inactive | inactive | inactive | 65.2% | inactive | inactive | inactive | inactive | inactive | 4.19 | 3.69 | –
10 | NCC12CC3CC(CC1C3)C2 | inactive | inactive | inactive | inactive | inactive | 50.1% | inactive | inactive | inactive | inactive | inactive | < 3.70 | < 3.70 | pEC50 (Influenza A virus H3N2): 4.28; Activity (Influenza B virus): inactive; pEC50 (Influenza A virus): 4.44; MCC [8]: > 530 µM
11 | Fc1ccc(CNC23CC4CC(CC2C4)C3)cc1 | inactive | inactive | inactive | inactive | inactive | 81.1% | inactive | inactive | inactive | inactive | inactive | < 3.70 | < 3.70 | –
12 | CN(Cc1ccccc1)CC12CC3(C)CC1CC3(C)C2 | inactive | inactive | inactive | inactive | inactive | – | inactive | inactive | inactive | inactive | inactive | 3.80 | – | Activity [5]: inactive
13 | CNCC12CC3(C)CC1CC3(C)C2 | inactive | inactive | inactive | inactive | inactive | 57.3% | inactive | inactive | inactive | inactive | inactive | < 3.70 | < 3.70 | –
14 | CC12CC3CC1(C)CC3(CNCc1ccccc1)C2 | inactive | inactive | inactive | inactive | inactive | – | inactive | inactive | inactive | inactive | inactive | 4.33 | – | Activity (Trypanosoma brucei [10]): inactive; Activity [5]: inactive
15 | CN(C)C12CC3CC(CC1C3)C2 | inactive | inactive | inactive | inactive | inactive | 71.3% | inactive | inactive | inactive | inactive | inactive | 3.76 | < 3.30 | –
16 | NC12CC3CC(CC(C3)C1)C2 [AMANTADINE] | – | – | – | – | – | 47.4% | – | – | – | – | – | – | – | pEC50 (Influenza A virus H3N2): 5.57; Activity (Influenza B virus): inactive; pIC50 (Trypanosoma brucei [9]): < 3.89; pEC50 (Influenza A virus): 4.11; MCC [8]: > 100 µM
17 | CC(N)C12CC3(C)CC1CC3(C)C2 (centres undefined) | inactive | inactive | inactive | inactive | inactive | 72.2% | inactive | inactive | inactive | inactive | inactive | 4.43 | 4.03 | pIC50 (Trypanosoma brucei [9]): 5.22; IC90 (Trypanosoma brucei [9]): 9.48 µM
18 | CN(Cc1ccccc1)C12CC3CC(CC1C3)C2 | inactive | inactive | inactive | inactive | inactive | 47.2% | inactive | inactive | inactive | inactive | inactive | 4.44 | < 3.30 | –
